This is an account of results in ChEMBL document CHEMBL1126508, “Quinazolinones 1: design and synthesis of potent quinazolinone- containing AT1-selective angiotensin-II receptor antagonists” (Bioorg Med Chem Lett, 1993).

Series [1] has as its target T1, Type-1 angiotensin II receptor (Oryctolagus cuniculus, UniProt P34976).
T1 sequence (P34976 whole entry): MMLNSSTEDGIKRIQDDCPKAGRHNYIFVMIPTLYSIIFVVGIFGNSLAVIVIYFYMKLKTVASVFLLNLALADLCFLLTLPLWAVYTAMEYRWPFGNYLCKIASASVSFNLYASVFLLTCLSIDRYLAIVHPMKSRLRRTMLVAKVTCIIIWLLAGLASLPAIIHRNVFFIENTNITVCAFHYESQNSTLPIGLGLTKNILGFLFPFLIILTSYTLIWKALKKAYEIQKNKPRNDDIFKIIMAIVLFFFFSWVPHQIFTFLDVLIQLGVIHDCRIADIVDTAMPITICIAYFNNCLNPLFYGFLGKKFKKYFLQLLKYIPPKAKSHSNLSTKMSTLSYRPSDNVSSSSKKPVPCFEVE
In words: Binding affinity against Angiotensin II type 1 Receptor in rabbit aortic tissue. It counts as tissue-based, Aorta.

The nature of series [2]: Tested for Lipophilicity of the compound. It is filed as physicochemical. Particulars: octanol/water.
For series [3], the target named is T1, Type-1 angiotensin II receptor. The experiment in a line: Ability to displace [125I]Sar1-Ile8-AII from Angiotensin II receptor, type 1 in rabbit aorta in presence of 0.2% bovine serum albumin (BSA) was determined in vitro. It counts as tissue-based.

Regarding `CCCCc1nc2cc(C)ccc2c(=O)n1Cc1ccc(-c2ccccc2C(=O)O)cc1`, the IC50 in series [1] came to 370 nM.
`CCCCc1nc2ccc(OC)cc2c(=O)n1Cc1ccc(-c2ccccc2-c2nnn[nH]2)cc1` displayed a Lipophilicity in series [2] of -0.02. The compound further showed an IC50 in series [1] of 5 nM.
`CCCCc1nc2ccc([N+](=O)[O-])cc2c(=O)n1Cc1ccc(-c2ccccc2-c2nn[nH]n2)cc1` gave a Lipophilicity in series [2] of -0.28. In series [1], this compound yielded an IC50 of 28 nM.
In the case of `CCCCc1nc2c(C)cccc2c(=O)n1Cc1ccc(-c2ccccc2C(=O)O)cc1`, in series [1], the IC50 was found to be 1400 nM.
Same read-out and setting: under `CCCCc1nc2cc(OC)c(OC)cc2c(=O)n1Cc1ccc(-c2ccccc2-c2nnn[nH]2)cc1` stands 13 nM.
For `CCCCc1nc2ccc(N)cc2c(=O)n1Cc1ccc(-c2ccccc2-c2nnn[nH]2)cc1`, the Lipophilicity in series [2] is reported as -1.23. In addition, in series [1], the concentration for half-maximal inhibition (IC50) is 1.3 nM.
With `CCCCc1nc2ccc(C(F)(F)F)cc2c(=O)n1Cc1ccc(-c2ccccc2-c2nn[nH]n2)cc1`, the Lipophilicity in series [2] stood at 0.88. The IC50 in series [3] amounted to 12 nM.
In series [2], `CCCCc1nc2ccc(F)cc2c(=O)n1Cc1ccc(-c2ccccc2-c2nn[nH]n2)cc1` registered a Lipophilicity of 0.14. The compound also came in with an IC50 in series [1] of 26 nM.
On to `CCCCc1nc2cccc(C)c2c(=O)n1Cc1ccc(-c2ccccc2C(=O)O)cc1`, for which, in series [1], the IC50 was 370 nM.
Same read-out and setting: then `CCCCc1nc2cc(Cl)ccc2c(=O)n1Cc1ccc(-c2ccccc2-c2nn[nH]n2)cc1`, with 15 nM; and `CCCCc1nc2ccccc2c(=O)n1Cc1ccc(-c2ccccc2C(=O)O)cc1`, with 200 nM; and `CCCCc1nc2cc3ccccc3cc2c(=O)n1Cc1ccc(-c2ccccc2C(=O)O)cc1`, with 380 nM.
Same read-out and setting: then `CCCCc1nc2ccc(C)cc2c(=O)n1Cc1ccc(-c2ccccc2C(=O)O)cc1`, with 92 nM.
The compound `CCCCc1nc2ccc(NC(C)=O)cc2c(=O)n1Cc1ccc(-c2ccccc2-c2nnn[nH]2)cc1` yielded a Lipophilicity in series [2] of -0.97. This compound displayed an IC50 in series [1] of 9 nM.
Turning to `CCCc1nc2ccc(C)cc2c(=O)n1Cc1ccc(-c2ccccc2-c2nn[nH]n2)cc1`, the IC50 in series [1] came to 10 nM.
The compound `CCCCc1nc2ccccc2c(=O)n1Cc1ccc(-c2ccccc2-c2nn[nH]n2)cc1` yielded a Lipophilicity in series [2] of 0. In series [1], this compound yielded an IC50 of 10 nM.
In the case of `CCCCC(=O)Nc1ccc2nc(CCCC)n(Cc3ccc(-c4ccccc4-c4nnn[nH]4)cc3)c(=O)c2c1`, the IC50 in series [1] came to 2 nM.
Same read-out and setting: under `CCCCc1nc2cccc(F)c2c(=O)n1Cc1ccc(-c2ccccc2-c2nn[nH]n2)cc1` stands 10 nM; under `CCCCCc1nc2ccc(C)cc2c(=O)n1Cc1ccc(-c2ccccc2-c2nnn[nH]2)cc1`, 6.4 nM.
`CCCCc1nc2ccc(I)cc2c(=O)n1Cc1ccc(-c2ccccc2-c2nnn[nH]2)cc1` gave a Lipophilicity in series [2] of 1.12. The IC50 in series [3] was found to be 12 nM.
Regarding `CCc1nc2ccc(C)cc2c(=O)n1Cc1ccc(-c2ccccc2-c2nn[nH]n2)cc1`, the IC50 in series [1] was more than 100 nM.
`CCCCc1nc2ccc(C)cc2c(=O)n1Cc1ccc(-c2ccccc2-c2nnn[nH]2)cc1` displayed a Lipophilicity in series [2] of 0.56. The IC50 in series [1] is 4 nM.
For `CCCCc1nc2ccc(Cl)cc2c(=O)n1Cc1ccc(-c2ccccc2-c2nn[nH]n2)cc1` the same measures were 0.71 and 29 nM.
